For experiment [1], the system named is glaucomatous rabbit eye model. In words: Antiglaucoma activity in vivo, IOP lowering, topical. The following applies: 1 % concentration, at 1 h post-administration.
The target of a further experiment is CYP2D6 (Homo sapiens, UniProt P10635). In words: CYP inhibition in HLM, CYP2D6. In kind it is in vitro ADME.
CYP2D6, sequence (P10635 whole entry): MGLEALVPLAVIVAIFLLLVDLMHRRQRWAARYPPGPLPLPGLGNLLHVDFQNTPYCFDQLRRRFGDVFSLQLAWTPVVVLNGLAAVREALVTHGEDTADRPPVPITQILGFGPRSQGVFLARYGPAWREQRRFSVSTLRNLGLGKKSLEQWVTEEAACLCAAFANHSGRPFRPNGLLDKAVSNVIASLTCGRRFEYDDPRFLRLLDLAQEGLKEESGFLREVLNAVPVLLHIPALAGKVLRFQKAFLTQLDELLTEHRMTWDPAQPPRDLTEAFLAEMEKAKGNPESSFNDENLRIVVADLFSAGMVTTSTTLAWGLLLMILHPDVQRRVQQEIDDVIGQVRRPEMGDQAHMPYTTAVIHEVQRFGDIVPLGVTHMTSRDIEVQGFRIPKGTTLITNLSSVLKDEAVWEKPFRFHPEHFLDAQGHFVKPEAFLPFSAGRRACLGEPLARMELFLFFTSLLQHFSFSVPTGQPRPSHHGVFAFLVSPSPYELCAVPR

`CCN[C@H]1CN(CCCOC)S(=O)(=O)c2sc(S(N)(=O)=O)cc21` [BRZ, brinzolamide]: the “maximal intraocular pressure lowering effect” value in experiment [1] is reported as “around 5 mm Hg”.

In the case of `COc1ccc2c(c1)[C@]13CCCC[C@@H]1[C@H](C2)N(C)CC3` [Dextromethorphan], on CYP2D6, the midpoint of inhibition, the IC50, lay at 1340 nM.

Source of the values: publication PMC10848004 (Saudi Pharmaceutical Journal : SPJ, 2024).
